Test results: ChEMBL document CHEMBL1159093, “Discovery and optimization of RO-85, a novel drug-like, potent, and selective P2X3 receptor antagonist” (Bioorg Med Chem Lett, 2010)
pIC50: −log10 of the molar value.

Key:
[1] = biological target: Endothelin receptor type B (Homo sapiens) (UniProt P24530); assay: Displacement of [125I]endothelin-1 from human recombinant ETB receptor expressed in CHO cells at 10 uM after 120 mins by scintillation counting; assay type: cell-based
P2X purinoceptor 5 = P2X purinoceptor 5 (Homo sapiens, UniProt Q93086); assay: Antagonist activity at P2X5 receptor; assay type: functional
[2] = biological target: Galanin receptor type 1 (Homo sapiens) (UniProt P47211); assay: Displacement of [125I]galanin from human recombinant GAL1 receptor expressed in HEK293 cells at 10 uM after 60 mins by scintillation counting; assay type: cell-based
P2X purinoceptor 2 = P2X purinoceptor 2 (Homo sapiens, UniProt Q9UBL9); assay: Antagonist activity at P2X2 receptor; assay type: functional
[3] = biological target: 5-hydroxytryptamine receptor 6 (Homo sapiens) (UniProt P50406); assay: Displacement of [3H]LSD from human recombinant 5HT6 receptor expressed in CHO cells at 10 uM after 120 mins by scintillation counting; assay type: cell-based
[4] = biological target: Histamine H2 receptor (Homo sapiens) (UniProt P25021); assay: Displacement of [125I]APT from human recombinant histamine H2 receptor expressed in CHO cells at 10 uM after 120 mins by scintillation counting; assay type: cell-based
[5] = biological target: 5-hydroxytryptamine receptor 1A (Homo sapiens) (UniProt P08908); assay: Displacement of [3H]8-OH-DPAT from human recombinant 5HT1A receptor expressed in HEK293 cells at 10 uM after 60 mins by scintillation counting; assay type: cell-based
[6] = biological target: Muscarinic acetylcholine receptor M5 (Homo sapiens) (UniProt P08912); assay: Displacement of [3H]4-DAMP from human recombinant muscarinic M5 receptor expressed in CHO cells at 10 uM after 60 mins by scintillation counting; assay type: cell-based
P2X purinoceptor 6 = P2X purinoceptor 6 (Homo sapiens, UniProt O15547); assay: Antagonist activity at P2X6 receptor; assay type: functional
Rattus norvegicus [7] = organism: Rattus norvegicus; assay: Displacement of [3H]GABA from GABA receptor in rat cerebral cortex at 10 uM after 60 mins by scintillation counting; assay type: tissue-based
[8] = biological target: Beta-1 adrenergic receptor (Homo sapiens) (UniProt P08588); assay: Displacement of [3H]RX 821002 from human recombinant beta-1 adrenergic receptor expressed in HEK293 cells at 10 uM after 60 mins by scintillation counting; assay type: cell-based
[9] = Half life in po dosed rat; assay type: ADME, organism-based; conditions: in vivo
[10] = biological target: Mu-type opioid receptor (Homo sapiens) (UniProt P35372); assay: Displacement of [3H]DAMGO from human recombinant mu opioid receptor expressed in HEK293 cells at 10 uM after 120 mins by scintillation counting; assay type: cell-based
[11] = biological target: Neurotensin receptor type 1 (Homo sapiens) (UniProt P30989); assay: Displacement of [125I]Tyr3-neurotensin from human recombinant NTS1 receptor expressed in CHO cells at 10 uM after 60 mins by scintillation counting; assay type: cell-based
[12] = Oral bioavailability in rat; assay type: ADME, organism-based; conditions: in vivo
[13] = biological target: C-X-C chemokine receptor type 2 (Homo sapiens) (UniProt P25025); assay: Displacement of [125I]IL-8 from human recombinant CXCR2 receptor expressed in HEK293 cells at 10 uM after 60 mins by scintillation counting; assay type: cell-based
[14] = biological target: D(4) dopamine receptor (Homo sapiens) (UniProt P21917); assay: Displacement of [3H]methyl-spiperone from human recombinant D4.4 receptor expressed in CHO cells at 10 uM after 60 mins by scintillation counting; assay type: cell-based
[15] = biological target: Neuromedin-K receptor (Homo sapiens) (UniProt P29371); assay: Displacement of [3H]SR142801 from human recombinant NK3 receptor expressed in CHO cells at 10 uM after 120 mins by scintillation counting; assay type: cell-based
[16] = biological target: Glucocorticoid receptor (Homo sapiens) (UniProt P04150); assay: Displacement of [3H]dexamethasone from glucocorticoid receptor in human IM9 cells at 10 uM after 6 hrs by scintillation counting; assay type: cell-based; conditions: IM-9
[17] = Inhibition of Cytochrome P450 at <15 uM; assay type: ADME
Rattus norvegicus [18] = organism: Rattus norvegicus; assay: Displacement of [35S]dATPaS from P2Y receptor in rat cerebral cortex at 10 uM after 60 mins by scintillation counting; assay type: tissue-based
[19] = biological target: 5-hydroxytryptamine receptor 5A (Homo sapiens) (UniProt P47898); assay: Displacement of [3H]LSD from human recombinant 5HT5A receptor expressed in HEK293 cells at 10 uM after 120 mins by scintillation counting; assay type: cell-based
[20] = biological target: Beta-2 adrenergic receptor (Homo sapiens) (UniProt P07550); assay: Displacement of [3H](-)CGP 12177 from human recombinant beta2 adrenergic receptor expressed in CHO cells at 10 uM after 120 mins by scintillation counting; assay type: cell-based
[21] = biological target: Type-2 angiotensin II receptor (Homo sapiens) (UniProt P50052); assay: Displacement of [125I]CGP 42112A from human recombinant AT2 receptor expressed in HEK293 cells at 10 uM after 4 hrs by scintillation counting; assay type: cell-based
[22] = biological target: Histamine H1 receptor (Homo sapiens) (UniProt P35367); assay: Displacement of [3H]pyrilamine from human recombinant histamine H1 receptor expressed in HEK293 cells at 10 uM after 60 mins by scintillation counting; assay type: cell-based
[23] = Metabolic stability in rat liver microsomes; assay type: ADME, Microsome; conditions: read-out: Stability
Rattus norvegicus [24] = organism: Rattus norvegicus; assay: Displacement of [3H]TCP from PCP receptor in rat cerebral cortex at 10 uM after 120 mins by scintillation counting; assay type: tissue-based
[25] = biological target: Adenosine receptor A1 (Homo sapiens) (UniProt P30542); assay: Displacement of [3H]DPCPX from human recombinant A1 receptor expressed in CHO cells at 10 uM after 60 mins by scintillation counting; assay type: cell-based
[26] = biological target: Muscarinic acetylcholine receptor M4 (Homo sapiens) (UniProt P08173); assay: Displacement of [3H]4-DAMP from human recombinant muscarinic M4 receptor expressed in CHO cells at 10 uM after 60 mins by scintillation counting; assay type: cell-based
[27] = biological target: Substance-P receptor (Homo sapiens) (UniProt P25103); assay: Displacement of [125I]BH-SP from NK1 receptor in human U-373MG cells at 10 uM after 60 mins by scintillation counting; assay type: cell-based; conditions: U-373MG ATCC
[28] = biological target: Muscarinic acetylcholine receptor M1 (Homo sapiens) (UniProt P11229); assay: Displacement of [3H]pirenzepine from human recombinant muscarinic M1 receptor expressed in CHO cells at 10 uM after 60 mins by scintillation counting; assay type: cell-based

P2X purinoceptor 6, sequence (O15547 whole entry): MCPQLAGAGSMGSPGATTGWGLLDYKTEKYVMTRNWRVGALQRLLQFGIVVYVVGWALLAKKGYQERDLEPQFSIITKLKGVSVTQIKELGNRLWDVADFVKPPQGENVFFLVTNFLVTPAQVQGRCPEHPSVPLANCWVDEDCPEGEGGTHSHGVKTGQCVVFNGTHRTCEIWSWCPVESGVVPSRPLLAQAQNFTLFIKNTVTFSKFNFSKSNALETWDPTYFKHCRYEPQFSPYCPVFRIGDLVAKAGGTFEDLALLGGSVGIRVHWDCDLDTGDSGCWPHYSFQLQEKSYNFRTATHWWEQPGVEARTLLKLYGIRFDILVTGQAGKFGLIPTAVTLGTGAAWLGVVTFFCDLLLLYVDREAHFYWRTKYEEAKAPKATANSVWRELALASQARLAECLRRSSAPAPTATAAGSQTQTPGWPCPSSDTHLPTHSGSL
Beta-1 adrenergic receptor (Homo sapiens), sequence (P08588 whole entry, looked up): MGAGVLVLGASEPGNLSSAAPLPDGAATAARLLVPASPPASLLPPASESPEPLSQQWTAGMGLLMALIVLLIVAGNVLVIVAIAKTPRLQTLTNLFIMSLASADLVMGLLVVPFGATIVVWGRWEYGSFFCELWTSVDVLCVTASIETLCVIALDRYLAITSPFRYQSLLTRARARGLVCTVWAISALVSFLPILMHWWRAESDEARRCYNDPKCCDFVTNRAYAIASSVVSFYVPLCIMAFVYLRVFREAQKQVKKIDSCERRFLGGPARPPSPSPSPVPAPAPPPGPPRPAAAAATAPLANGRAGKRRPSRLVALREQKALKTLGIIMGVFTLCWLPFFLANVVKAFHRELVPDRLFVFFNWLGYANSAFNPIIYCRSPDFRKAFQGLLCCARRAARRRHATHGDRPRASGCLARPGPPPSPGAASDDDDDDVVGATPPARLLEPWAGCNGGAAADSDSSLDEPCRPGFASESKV
Neurotensin receptor type 1 (Homo sapiens), sequence (P30989 whole entry): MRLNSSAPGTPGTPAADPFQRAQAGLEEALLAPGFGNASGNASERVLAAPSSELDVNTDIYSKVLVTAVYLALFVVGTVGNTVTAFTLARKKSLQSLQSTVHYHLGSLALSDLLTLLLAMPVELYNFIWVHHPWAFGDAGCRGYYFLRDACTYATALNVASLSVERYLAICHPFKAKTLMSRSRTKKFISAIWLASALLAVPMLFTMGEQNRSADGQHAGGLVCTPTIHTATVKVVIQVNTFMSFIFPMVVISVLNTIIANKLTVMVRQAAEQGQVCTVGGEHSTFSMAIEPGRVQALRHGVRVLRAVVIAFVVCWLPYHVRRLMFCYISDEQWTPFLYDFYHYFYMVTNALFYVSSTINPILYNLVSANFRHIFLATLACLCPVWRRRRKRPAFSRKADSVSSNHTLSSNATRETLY
5-hydroxytryptamine receptor 5A (Homo sapiens), sequence (P47898 whole entry): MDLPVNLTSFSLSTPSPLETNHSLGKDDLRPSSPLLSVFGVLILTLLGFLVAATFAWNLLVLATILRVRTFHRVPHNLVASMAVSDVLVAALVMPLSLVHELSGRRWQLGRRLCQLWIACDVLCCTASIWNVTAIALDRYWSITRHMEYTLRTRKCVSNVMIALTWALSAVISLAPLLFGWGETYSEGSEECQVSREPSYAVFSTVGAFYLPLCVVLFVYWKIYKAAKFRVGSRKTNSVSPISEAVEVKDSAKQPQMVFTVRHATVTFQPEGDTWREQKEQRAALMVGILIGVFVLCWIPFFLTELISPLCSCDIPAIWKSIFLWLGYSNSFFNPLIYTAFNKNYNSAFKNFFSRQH
Muscarinic acetylcholine receptor M4 (Homo sapiens), sequence (P08173 whole entry): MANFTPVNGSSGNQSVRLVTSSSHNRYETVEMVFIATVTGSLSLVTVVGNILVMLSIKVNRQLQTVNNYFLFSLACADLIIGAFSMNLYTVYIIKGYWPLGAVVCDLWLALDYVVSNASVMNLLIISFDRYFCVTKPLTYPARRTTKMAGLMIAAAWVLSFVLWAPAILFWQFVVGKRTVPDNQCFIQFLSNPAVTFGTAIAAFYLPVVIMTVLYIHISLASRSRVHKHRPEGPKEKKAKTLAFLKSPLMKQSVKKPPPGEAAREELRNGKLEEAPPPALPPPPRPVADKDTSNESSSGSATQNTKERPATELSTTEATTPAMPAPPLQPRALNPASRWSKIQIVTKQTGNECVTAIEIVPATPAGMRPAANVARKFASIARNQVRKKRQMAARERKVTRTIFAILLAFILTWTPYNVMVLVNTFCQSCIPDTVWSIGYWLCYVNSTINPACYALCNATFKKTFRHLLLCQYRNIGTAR
Histamine H1 receptor (Homo sapiens), sequence (P35367 whole entry): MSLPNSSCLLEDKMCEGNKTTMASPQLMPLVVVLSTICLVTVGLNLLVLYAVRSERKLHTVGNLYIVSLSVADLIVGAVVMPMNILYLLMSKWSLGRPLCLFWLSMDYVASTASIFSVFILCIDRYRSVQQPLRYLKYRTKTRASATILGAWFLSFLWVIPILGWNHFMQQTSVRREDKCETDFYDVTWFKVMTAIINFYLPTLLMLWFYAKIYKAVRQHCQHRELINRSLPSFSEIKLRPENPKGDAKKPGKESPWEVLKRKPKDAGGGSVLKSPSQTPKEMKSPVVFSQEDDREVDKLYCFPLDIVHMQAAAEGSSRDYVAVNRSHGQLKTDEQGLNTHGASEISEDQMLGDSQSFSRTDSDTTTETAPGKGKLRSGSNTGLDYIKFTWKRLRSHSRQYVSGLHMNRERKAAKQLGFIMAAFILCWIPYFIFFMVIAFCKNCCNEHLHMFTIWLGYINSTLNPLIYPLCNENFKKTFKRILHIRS
P2X purinoceptor 2, sequence (Q9UBL9 whole entry): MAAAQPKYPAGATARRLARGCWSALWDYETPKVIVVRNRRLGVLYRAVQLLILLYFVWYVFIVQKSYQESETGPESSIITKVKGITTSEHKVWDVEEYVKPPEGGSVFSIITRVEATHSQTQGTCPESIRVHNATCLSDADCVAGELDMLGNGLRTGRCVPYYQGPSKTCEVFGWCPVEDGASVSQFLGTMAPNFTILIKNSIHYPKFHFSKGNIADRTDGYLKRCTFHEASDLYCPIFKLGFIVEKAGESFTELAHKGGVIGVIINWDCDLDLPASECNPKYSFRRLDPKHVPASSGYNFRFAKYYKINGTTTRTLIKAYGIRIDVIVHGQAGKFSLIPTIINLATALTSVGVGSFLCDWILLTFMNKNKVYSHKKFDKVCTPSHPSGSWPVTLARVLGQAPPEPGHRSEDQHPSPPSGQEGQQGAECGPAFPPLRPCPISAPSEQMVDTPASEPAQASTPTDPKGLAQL
Beta-2 adrenergic receptor (Homo sapiens), sequence (P07550 whole entry, looked up): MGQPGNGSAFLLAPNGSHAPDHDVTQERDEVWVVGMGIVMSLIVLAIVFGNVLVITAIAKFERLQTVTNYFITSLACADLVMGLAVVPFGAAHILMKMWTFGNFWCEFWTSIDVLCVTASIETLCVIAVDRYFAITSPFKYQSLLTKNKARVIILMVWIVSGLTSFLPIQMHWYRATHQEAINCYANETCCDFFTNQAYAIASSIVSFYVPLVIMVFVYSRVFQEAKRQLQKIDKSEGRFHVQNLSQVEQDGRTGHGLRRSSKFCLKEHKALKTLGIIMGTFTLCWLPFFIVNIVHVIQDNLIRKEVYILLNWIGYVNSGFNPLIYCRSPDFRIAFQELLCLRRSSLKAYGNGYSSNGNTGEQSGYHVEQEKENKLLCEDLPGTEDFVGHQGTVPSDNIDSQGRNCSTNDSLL
Substance-P receptor (Homo sapiens), sequence (P25103 whole entry): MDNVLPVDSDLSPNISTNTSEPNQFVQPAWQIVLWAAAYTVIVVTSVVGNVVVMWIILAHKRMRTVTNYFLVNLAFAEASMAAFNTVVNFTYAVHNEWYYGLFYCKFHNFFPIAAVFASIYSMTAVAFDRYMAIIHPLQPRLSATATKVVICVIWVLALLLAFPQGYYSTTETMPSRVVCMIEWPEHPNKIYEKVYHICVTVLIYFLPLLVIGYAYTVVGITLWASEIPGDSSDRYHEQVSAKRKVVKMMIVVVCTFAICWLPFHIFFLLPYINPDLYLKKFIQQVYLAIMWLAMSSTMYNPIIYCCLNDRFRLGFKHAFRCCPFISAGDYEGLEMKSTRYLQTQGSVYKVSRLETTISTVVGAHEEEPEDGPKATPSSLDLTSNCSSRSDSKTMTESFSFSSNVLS
5-hydroxytryptamine receptor 6 (Homo sapiens), sequence (P50406 whole entry): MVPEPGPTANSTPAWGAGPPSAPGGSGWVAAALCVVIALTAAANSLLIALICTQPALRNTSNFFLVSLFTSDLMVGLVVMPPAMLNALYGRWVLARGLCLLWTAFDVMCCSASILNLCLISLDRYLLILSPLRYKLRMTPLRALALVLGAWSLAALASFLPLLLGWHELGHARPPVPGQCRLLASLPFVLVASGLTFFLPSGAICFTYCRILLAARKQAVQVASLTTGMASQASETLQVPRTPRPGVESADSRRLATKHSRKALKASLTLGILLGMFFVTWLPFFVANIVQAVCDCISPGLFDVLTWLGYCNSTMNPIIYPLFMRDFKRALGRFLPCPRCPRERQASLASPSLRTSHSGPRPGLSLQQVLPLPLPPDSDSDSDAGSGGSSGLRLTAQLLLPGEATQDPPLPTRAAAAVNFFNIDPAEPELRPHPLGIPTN
Adenosine receptor A1 (Homo sapiens), sequence (P30542 whole entry): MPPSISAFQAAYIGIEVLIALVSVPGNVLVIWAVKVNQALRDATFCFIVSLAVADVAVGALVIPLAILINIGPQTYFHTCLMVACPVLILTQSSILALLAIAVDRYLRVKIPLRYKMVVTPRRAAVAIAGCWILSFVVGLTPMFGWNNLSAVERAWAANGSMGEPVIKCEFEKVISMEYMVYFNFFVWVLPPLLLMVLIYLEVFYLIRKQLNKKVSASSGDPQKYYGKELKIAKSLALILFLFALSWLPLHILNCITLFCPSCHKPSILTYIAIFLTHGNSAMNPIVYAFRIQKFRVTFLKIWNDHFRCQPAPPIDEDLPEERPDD

CC(=O)N1CCN(C[C@@H](C)NC(=O)c2cc3c(-c4ccccc4)nn(C)c3s2)CC1
89%: bioavailability [12]
1.6 h: half-life [9]
43.7 µL/min/mg: microsomal CLint [23]
< 5.00: pIC50 (P2X purinoceptor 5) | pIC50 (P2X purinoceptor 2) | pIC50 (P2X purinoceptor 6)
Not Active: Activity [17]
> 50%: Activity [1] | Activity [2] | Activity [3] | Activity [4] | Activity [5] | Activity [6] | Activity (Rattus norvegicus [7]) | Activity [8] | Activity [10] | Activity [11] | Activity [13] | Activity [14] | Activity [15] | Activity [16] | Activity (Rattus norvegicus [18]) | Activity [19] | Activity [20] | Activity [21] | Activity [22] | Activity (Rattus norvegicus [24]) | Activity [25] | Activity [26] | Activity [27] | Activity [28]
